Source: ChEMBL document CHEMBL1201862, “PubChem BioAssay data set” (2004)
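Following 48 hours of exposure in 96-well plates, responses at five concentrations were used to interpolate endpoints linearly. Abbreviation: GI50, concentration required for 50% inhibition of growth.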 The source made the active and inactive calls. No stated cut-off is given here; in the data, active = GI50 up to about 1.1 µM and inactive = higher.

Assays:
Test in all cases: inhibition of tumour cell growth, NCI panel, 48 h
MDA-MB-435 = tested on: MDA-MB-435
MCF7 = tested on: MCF7
DU-145 = tested on: DU-145
KM12 = tested on: KM12
RPMI-8226 = tested on: RPMI-8226
OVCAR-3 = tested on: OVCAR-3
M14 = tested on: M14
PC-3 = tested on: PC-3
K562 = tested on: K562
COLO 205 = tested on: COLO 205
HL-60 = tested on: HL-60
SN12C = tested on: SN12C
CAKI-1 = tested on: CAKI-1
SW-620 = tested on: SW-620
SF-268 = tested on: SF-268
HCT-15 = tested on: HCT-15
SK-MEL-2 = tested on: SK-MEL-2
UACC-62 = tested on: UACC-62
HCC 2998 = tested on: HCC 2998
NCI-H226 = tested on: NCI-H226

Measured: GI50

CC1(C)[C@@H]2C[C@H]1C(Cc1ccc(C[C@H]3c4cc(-c5ccccn5)ncc4[C@H]4C[C@@H]3C4(C)C)cc1)c1cc(-c3ccccn3)ncc12 (some centres undefined)
2.9 µM: HCT-15
inactive: MDA-MB-435 1.13 µM | MCF7 1.89 µM | DU-145 2.31 µM | KM12 2.18 µM | RPMI-8226 3.03 µM | M14 1.16 µM | COLO 205 1.41 µM | CAKI-1 2.45 µM | SW-620 3.46 µM | SK-MEL-2 7.38 µM | HCC 2998 1.74 µM
active: OVCAR-3 0.679 µM | PC-3 0.587 µM | K562 0.649 µM | HL-60 0.518 µM | SN12C 0.902 µM | SF-268 0.865 µM | UACC-62 0.67 µM

CC(C)(NO)/C(=N\O)c1ccco1
inactive: NCI-H226 > 100 µM | MDA-MB-435 > 100 µM | MCF7 > 100 µM | DU-145 > 100 µM | KM12 > 100 µM | RPMI-8226 > 100 µM | OVCAR-3 > 100 µM | M14 > 100 µM | PC-3 > 100 µM | COLO 205 > 100 µM | SN12C > 100 µM | CAKI-1 > 100 µM | SW-620 > 100 µM | SF-268 > 100 µM | SK-MEL-2 > 100 µM | UACC-62 > 100 µM | HCC 2998 > 100 µM
> 100 µM: HCT-15

O=C(CN1CCCCC1)c1ccc2[nH]c(=O)oc2c1
inactive: NCI-H226 > 100 µM | MDA-MB-435 > 100 µM | MCF7 > 100 µM | DU-145 > 100 µM | KM12 > 100 µM | RPMI-8226 > 100 µM | OVCAR-3 > 100 µM | M14 > 100 µM | PC-3 > 100 µM | K562 > 100 µM | COLO 205 > 100 µM | HL-60 > 100 µM | SN12C > 100 µM | CAKI-1 > 100 µM | SW-620 > 100 µM | SF-268 > 100 µM | SK-MEL-2 > 100 µM | UACC-62 > 100 µM
> 100 µM: HCT-15

NC(Cc1ccc(O)cn1)C(=O)O (centres undefined)
> 100 µM: HCT-15
inactive: NCI-H226 > 100 µM | MDA-MB-435 84.1 µM | MCF7 > 100 µM | DU-145 > 100 µM | KM12 > 100 µM | RPMI-8226 > 100 µM | OVCAR-3 > 100 µM | PC-3 > 100 µM | K562 > 100 µM | COLO 205 > 100 µM | HL-60 33.8 µM | SN12C > 100 µM | CAKI-1 > 100 µM | SW-620 > 100 µM | SF-268 > 100 µM | HCC 2998 > 100 µM

O=C(O)c1cccc(S(=O)(=O)NCCO)c1
inactive: NCI-H226 > 100 µM | MDA-MB-435 > 100 µM | MCF7 > 100 µM | DU-145 > 100 µM | KM12 > 100 µM | RPMI-8226 > 100 µM | OVCAR-3 > 100 µM | M14 > 100 µM | PC-3 > 100 µM | K562 > 100 µM | COLO 205 > 100 µM | HL-60 > 100 µM | SN12C > 100 µM | CAKI-1 > 100 µM | SW-620 > 100 µM | SF-268 > 100 µM | SK-MEL-2 > 100 µM | UACC-62 > 100 µM
> 100 µM: HCT-15

CC12CC3OC(=O)C1COC14OC5(C2C1=O)C(O)(CCC1C4CC2OC24CC=CC(=O)C14C)C(=O)OC35C (centres undefined)
inactive: MDA-MB-435 13.6 µM | MCF7 8.85 µM | DU-145 14.6 µM | KM12 17.3 µM | RPMI-8226 19.2 µM | OVCAR-3 13.9 µM | M14 17.2 µM | PC-3 20.3 µM | K562 12.8 µM | COLO 205 10.3 µM | HL-60 8.04 µM | SN12C 21.5 µM | CAKI-1 13 µM | SW-620 12.4 µM | SF-268 36.7 µM | SK-MEL-2 14.5 µM | UACC-62 13.2 µM | HCC 2998 18.7 µM
16.4 µM: HCT-15

COc1ccc(C2C3=C(Nc4ncnn42)c2ccccc2OC3c2ccccc2)cc1 (centres undefined)
17.4 µM: HCT-15
inactive: MDA-MB-435 4.3 µM | MCF7 13.5 µM | DU-145 > 100 µM | KM12 14.6 µM | OVCAR-3 27.8 µM | M14 61.8 µM | PC-3 27.4 µM | K562 11 µM | COLO 205 23.7 µM | HL-60 2.27 µM | SN12C > 100 µM | CAKI-1 26.5 µM | SW-620 41.7 µM | SF-268 42.6 µM | SK-MEL-2 6 µM | UACC-62 17.3 µM

CCCn1cnc2c(/N=N/O)ncnc21
> 100 µM: HCT-15
inactive: NCI-H226 > 100 µM | MDA-MB-435 > 100 µM | MCF7 > 100 µM | DU-145 > 100 µM | KM12 > 100 µM | RPMI-8226 > 100 µM | OVCAR-3 > 100 µM | M14 > 100 µM | PC-3 > 100 µM | K562 > 100 µM | COLO 205 > 100 µM | HL-60 > 100 µM | CAKI-1 > 100 µM | SW-620 > 100 µM | SF-268 > 100 µM | UACC-62 > 100 µM | HCC 2998 > 100 µM

O=C(/C=C/c1ccc2c(c1)OCO2)CC(=O)C(=O)c1c[nH]c2ccccc12
36.8 µM: HCT-15
inactive: MDA-MB-435 24.3 µM | MCF7 32.2 µM | DU-145 42.9 µM | KM12 33.4 µM | RPMI-8226 35.4 µM | OVCAR-3 32 µM | M14 63.2 µM | PC-3 37 µM | K562 24.2 µM | COLO 205 35.3 µM | HL-60 29.2 µM | SN12C 45.8 µM | CAKI-1 39.5 µM | SW-620 29.4 µM | SF-268 37.2 µM | SK-MEL-2 > 100 µM | UACC-62 44.2 µM | HCC 2998 16.3 µM

CN(C)c1ccc2nc(CC(O)(C(F)(F)F)C(F)(F)F)ccc2c1
inactive: NCI-H226 > 10 µM | MDA-MB-435 > 10 µM | MCF7 > 10 µM | DU-145 > 10 µM | KM12 > 10 µM | RPMI-8226 > 10 µM | OVCAR-3 > 10 µM | M14 > 10 µM | PC-3 > 10 µM | K562 > 10 µM | COLO 205 > 10 µM | SN12C > 10 µM | CAKI-1 > 10 µM | SW-620 > 10 µM | SF-268 > 10 µM | SK-MEL-2 > 10 µM | UACC-62 > 10 µM | HCC 2998 > 10 µM
> 10 µM: HCT-15

CCOC(=O)NC(Nc1ncn(C(NC(=O)OCC)(C(F)(F)F)C(F)(F)F)n1)(C(F)(F)F)C(F)(F)F
> 100 µM: HCT-15
inactive: NCI-H226 > 100 µM | MDA-MB-435 > 100 µM | MCF7 > 100 µM | DU-145 > 100 µM | KM12 > 100 µM | RPMI-8226 > 100 µM | OVCAR-3 > 100 µM | M14 > 100 µM | PC-3 > 100 µM | K562 > 100 µM | COLO 205 > 100 µM | HL-60 > 100 µM | SN12C > 100 µM | CAKI-1 > 100 µM | SW-620 > 100 µM | SF-268 > 100 µM | UACC-62 > 100 µM | HCC 2998 29.9 µM

COC1=C2C[C@@H](C)C[C@@H](OC)[C@@H](O)[C@H](C)/C=C(\C)[C@@H](OC(N)=O)[C@H](OC)/C=C\C=C(/C)C(=O)NC(=CC1=O)C2=O
inactive: NCI-H226 3.56 µM | CAKI-1 1.77 µM
active: MDA-MB-435 0.0309 µM | MCF7 0.0198 µM | DU-145 0.106 µM | KM12 0.455 µM | RPMI-8226 0.138 µM | OVCAR-3 0.213 µM | M14 0.106 µM | PC-3 0.122 µM | K562 0.0115 µM | COLO 205 0.0116 µM | HL-60 0.0132 µM | SN12C 0.0405 µM | SW-620 0.0127 µM | SF-268 1.01 µM | SK-MEL-2 0.396 µM | UACC-62 0.122 µM
0.265 µM: HCT-15

OC(c1ccc(-c2ccccc2)cc1)(c1ccc(-c2ccccc2)cc1)c1ccc(-c2ccccc2)cc1
inactive: MDA-MB-435 > 100 µM | MCF7 > 100 µM | DU-145 > 100 µM | KM12 > 100 µM | RPMI-8226 > 100 µM | OVCAR-3 > 100 µM | M14 52.7 µM | PC-3 > 100 µM | K562 > 100 µM | COLO 205 > 100 µM | HL-60 > 10 µM | SN12C > 100 µM | CAKI-1 > 100 µM | SF-268 > 100 µM | UACC-62 > 100 µM
4.56 µM: HCT-15

O=c1cc(NNc2ccc3ccccc3c2)[nH]c(=S)[nH]1
14.5 µM: HCT-15
inactive: NCI-H226 > 100 µM | MDA-MB-435 23.4 µM | MCF7 4.31 µM | DU-145 > 100 µM | KM12 17.7 µM | RPMI-8226 22.2 µM | OVCAR-3 19.3 µM | M14 33.2 µM | PC-3 19.8 µM | K562 18.6 µM | COLO 205 23.2 µM | HL-60 24.7 µM | SN12C 34.8 µM | SW-620 18.2 µM | SF-268 21.1 µM | HCC 2998 24 µM

Clc1ccc(Cc2nc3cc(CCN4CCN(c5ccccc5)CC4)ccc3[nH]2)cc1
15 µM: HCT-15
inactive: NCI-H226 22.5 µM | MDA-MB-435 12.9 µM | MCF7 16 µM | DU-145 17.4 µM | KM12 11.3 µM | RPMI-8226 4.6 µM | OVCAR-3 13 µM | M14 5.73 µM | PC-3 18.6 µM | K562 5.93 µM | COLO 205 4.06 µM | HL-60 12.6 µM | SN12C 16 µM | CAKI-1 14.4 µM | SW-620 > 100 µM | SF-268 25.5 µM | SK-MEL-2 15 µM | UACC-62 16 µM
